According to publication PMC8941859, “The FDA-Approved Drug Cobicistat Synergizes with Remdesivir To Inhibit SARS-CoV-2 Replication In Vitro and Decreases Viral Titers and Disease Progression in Syrian Hamsters” (mBio, 2022):
“And” between values parts separate entries of the source, which are not always exact repeats. Equal entries are not always repeated. Where two headings read alike, the source gives them in different places.

What was measured:
SARS-CoV-2 [1] = format: cell-based; settings: 5 to 10 μM; MTT and crystal violet; Calu-3, T84, Vero E6
SARS-CoV-2 [2] = test: microbe, parasite or virus in culture; format: cell-based
in vitro = format: cell-based; settings: human; African green monkey
Procedure: Cell viability was evaluated by the MTT [3-(4,5-dimethylthiazol-2-yl)-2,5-diphenyl tetrazolium bromide] assay and by crystal violet staining as previously described ([76], [77]). Briefly, the MTT assay was conducted using the CellTiter 96 nonradioactive cell proliferation assay (MTT) (Promega; Madison, WI, USA). Cells were plated in a 96‐well plate at a concentration of 3 × 10^6 cells/mL in 100 μL of medium. The MTT solution (15 μL) was added to each well, and after 2 to 4 h, the reaction was stopped by the addition of 100 μL of 10% SDS. Absorbance values were acquired using an Infinite 200 PRO (Tecan, Männedorf, Switzerland) multimode plate reader at a 570-nm wavelength.
Data normality assumptions were tested by D’Agostino and Pearson normality test (for n > 3). Multiple-group comparisons were conducted by nonparametric Kruskal-Wallis test, followed by Dunn’s posttest, or by one-way or two-way analysis of variance (ANOVA) followed by Holm-Sidak or Dunnett posttests, respectively. Half-maximal inhibitory (IC50), effective (EC50), and cytotoxic (CC50) concentrations of the compounds were estimated by nonlinear regression after data normalization. […] Data analysis was conducted using GraphPad Prism v6 (GraphPad Software, San Diego, CA, USA). Synergy scores were calculated with the SynergyFinder web tool ([79]) using the Zero Interaction Potency (ZIP) model ([80]).

SARS-CoV-2 [3] = test: Replication-competent virus in supernatant (plaque assay); format: cell-based; settings: Vero E6 cells, MOI 0.05, 2.5-10 μM, 24 h postinfection
[4] = molecular target: spike protein and human ACE2 (Severe acute respiratory syndrome coronavirus 2, UniProt P0DTC2); test: cell-based; set-up: species or system SARS-CoV-2; human; settings: 1 h preincubation, luciferase after 24 h; read-out: IC50 of S-glycoprotein-mediated cell fusion
3CLpro = 3CLpro (Severe acute respiratory syndrome coronavirus 2, UniProt P0DTD1); test: 3CLpro fluorescence resonance energy transfer (FRET) assay; format: biochemical, SARS-CoV-2; settings: for FRET-determined EC50 (3CLpro): normalized to untreated control, nonlinear regression
Procedure: The activity of 3CLpro was measured by FRET assay (BPS Bioscience, San Diego, CA, USA) according to the manufacturer’s instructions and as previously described ([34]). […] Wells without drugs or without 3CLpro were used as positive control of 3CLpro activity and blank control, respectively. After a 30-min incubation, the 3CLpro substrate was added to each well and the plate was stored for 4 h in the dark. The fluorescence signal was acquired on an Infinite 200 PRO (Tecan, Männedorf, Switzerland) using an excitation wavelength of 360 nm and a detection wavelength of 460 nm. Relative 3CLpro was expressed as percentage of the positive control after subtraction of the blank.

[5] = tested on: Vero E6 cells transfected with the SARS-CoV-2 S-protein; test: Syncytium formation assay; format: cell-based, African green monkey; settings: 1, 5, 10 μM; 24 h posttransfection
SARS-CoV-2 [6] = test: SARS-CoV-2-infected Syrian hamsters

| Structure (SMILES) | FRET-determined EC50 (3CLpro) | Alveolar alterations: Alveolar edema (SARS-CoV-2 [6]; Day 3, single animal) | Alveolar alterations: Epithelial necrosis (SARS-CoV-2 [6]; Day 3, single animal) | Alveolar alterations: Type II hyperplasia (SARS-CoV-2 [6]; Day 3, single animal) | Pneumonia: Consolidated lung area (%) (SARS-CoV-2 [6]; Day 3, single animal) | Pneumonia: Inflammation score (SARS-CoV-2 [6]; Day 3, single animal) | Pneumonia: Lung area affected (%) (SARS-CoV-2 [6]; Day 3, single animal) | Vascular alterations: Endothelialitis (SARS-CoV-2 [6]; Day 3, single animal) | Vascular alterations: Perivascular edema (SARS-CoV-2 [6]; Day 3, single animal) | Vascular alterations: Perivascular lymphocytes (SARS-CoV-2 [6]; Day 3, single animal) | Alveolar alterations: Alveolar edema (SARS-CoV-2 [6]; Day 5, single animal) | Alveolar alterations: Epithelial necrosis (SARS-CoV-2 [6]; Day 5, single animal) | Alveolar alterations: Type II hyperplasia (SARS-CoV-2 [6]; Day 5, single animal) | Pneumonia: Consolidated lung area (%) (SARS-CoV-2 [6]; Day 5, single animal) | Pneumonia: Inflammation score (SARS-CoV-2 [6]; Day 5, single animal) | Pneumonia: Lung area affected (%) (SARS-CoV-2 [6]; Day 5, single animal) | Vascular alterations: Endothelialitis (SARS-CoV-2 [6]; Day 5, single animal) | Vascular alterations: Perivascular edema (SARS-CoV-2 [6]; Day 5, single animal) | Vascular alterations: Perivascular lymphocytes (SARS-CoV-2 [6]; Day 5, single animal) | EC50 (3CLpro) | other results |
| --- | --- | --- | --- | --- | --- | --- | --- | --- | --- | --- | --- | --- | --- | --- | --- | --- | --- | --- | --- | --- | --- |
| CC(C)c1nc(CN(C)C(=O)N[C@@H](CCN2CCOCC2)C(=O)N[C@H](CC[C@H](Cc2ccccc2)NC(=O)OCc2cncs2)Cc2ccccc2)cs1 [Cobicistat] | Could not be calculated | 2 and 0 | 1 and 0 and (1) | 1–2 and 0 | 20% and 0% and <5% | 2–3 and (1) and 1 | 30% and <5% and 5–10% | 2–3 and (1) and 1–2 | 1–2 and 0 | 1–2 and 0 | 3 and 2 and 2–3 | 2 and 1 | 2–3 and 3 and 1–2 | 50% and 30% and 35% | 3 and 2–3 | 80% and 70% and 50% | 2–3 and 3 | 2–3 and 2 | 2 and 1 |  | Viability of infected cells (SARS-CoV-2 [1]): partially rescue viability of infected cells; Effect on intracellular and supernatant viral RNA (SARS-CoV-2 [2]; Calu-3 cells, time course, low-micromolar concentrations, qPCR N1 and N2 primers): dose-dependent inhibitory effect; IC50 (SARS-CoV-2 [2]; Severe acute respiratory syndrome coronavirus 2, Calu-3, Vero E6 and T84 cells, MOI 0.05 and 0.5, treated 2 h postinfection, 48 h, read-out: IC50 (viral RNA release in supernatant), range): 0.58 to 8.76 µM; CC50 at 48 h (in vitro): 38.7 to 53 µM; Levels of replication-competent virus in supernatant (SARS-CoV-2 [3]): able to decrease the levels of replication-competent virus; IC50 [4]: 3.83 µM and 3.8 µM; Effect on catalytic activity of 3CLpro (3CLpro; FRET assay, Fig. S3A): inactive; Syncytium formation [5]: decreased syncytium formation; Tolerability of dosing regimen in vivo (SARS-CoV-2 [6]; 50 mg/kg): well tolerated; Infectious progeny in the lung (PFU, plaque assay) (SARS-CoV-2 [6]; cobicistat 50 mg/kg oral daily, remdesivir 15 mg/kg i.p. daily, days 3 and 5 p.i.): significant decrease |
| CC(C)CN(C[C@@H](O)[C@H](Cc1ccccc1)NC(=O)O[C@H]1CO[C@H]2OCC[C@H]21)S(=O)(=O)c1ccc(N)cc1 [Darunavir] | Could not be calculated |  |  |  |  |  |  |  |  |  |  |  |  |  |  |  |  |  |  |  |  |
| Cc1cccc(C)c1OCC(=O)N[C@@H](Cc1ccccc1)[C@@H](O)C[C@H](Cc1ccccc1)NC(=O)[C@H](C(C)C)N1CCCNC1=O [Lopinavir] |  |  |  |  |  |  |  |  |  |  |  |  |  |  |  |  |  |  |  | 219 µM |  |
| Cc1c(O)cccc1C(=O)N[C@@H](CSc1ccccc1)[C@H](O)CN1C[C@H]2CCCC[C@H]2C[C@H]1C(=O)NC(C)(C)C [Nelfinavir] | Could not be calculated |  |  |  |  |  |  |  |  |  |  |  |  |  |  |  |  |  |  |  |  |
| CCC(CC)COC(=O)[C@H](C)N[P@](=O)(OC[C@H]1O[C@@](C#N)(c2ccc3c(N)ncnn23)[C@H](O)[C@@H]1O)Oc1ccccc1 [Remdesivir, remdesivir] |  | 0 | (1) and 0 | 0 | 0% | (1) | 5% and <5% | 0 | (1) and 0 | 0 and (1) | 1 and 1–2 and 2 | 2 | 1 and 1–2 | 25% and 35% and 30% | 2–3 | 40% and 70% | 2–3 and 2 | (1) and 1 and 2 | 2 and 1–2 |  | IC50 (SARS-CoV-2 [2]; Severe acute respiratory syndrome coronavirus 2, Vero C1008, Vero E6 cells, MOI 0.5, 48 h, read-out: IC50 (viral RNA expression in supernatant)): 0.74 µM; IC50 (SARS-CoV-2 [2]; Severe acute respiratory syndrome coronavirus 2, T84 cells, MOI 0.5, 48 h, read-out: IC50 (viral RNA expression in supernatant)): 0.35 µM |
| CCC[C@@]1(CCc2ccccc2)CC(O)=C([C@H](CC)c2cccc(NS(=O)(=O)c3ccc(C(F)(F)F)cn3)c2)C(=O)O1 [Tipranavir] |  |  |  |  |  |  |  |  |  |  |  |  |  |  |  |  |  |  |  | 47 µM |  |
